Assay results from ChEMBL document CHEMBL4715888, “Synthetic approaches to unsymmetrical 2,5-disubstituted 1,3,4-oxadiazoles and their MAO-B inhibitory activity. A review” (Bioorg Med Chem, 2021).

Legend:
[1] = target: T1, Amine oxidase [flavin-containing] A (Rattus norvegicus, UniProt P21396); assay: Inhibition of Sprague-Dawley rat brain mitochondrial MAO-A using [14C]-5-HT as substrate by radioassay method
T1 sequence (P21396 whole entry): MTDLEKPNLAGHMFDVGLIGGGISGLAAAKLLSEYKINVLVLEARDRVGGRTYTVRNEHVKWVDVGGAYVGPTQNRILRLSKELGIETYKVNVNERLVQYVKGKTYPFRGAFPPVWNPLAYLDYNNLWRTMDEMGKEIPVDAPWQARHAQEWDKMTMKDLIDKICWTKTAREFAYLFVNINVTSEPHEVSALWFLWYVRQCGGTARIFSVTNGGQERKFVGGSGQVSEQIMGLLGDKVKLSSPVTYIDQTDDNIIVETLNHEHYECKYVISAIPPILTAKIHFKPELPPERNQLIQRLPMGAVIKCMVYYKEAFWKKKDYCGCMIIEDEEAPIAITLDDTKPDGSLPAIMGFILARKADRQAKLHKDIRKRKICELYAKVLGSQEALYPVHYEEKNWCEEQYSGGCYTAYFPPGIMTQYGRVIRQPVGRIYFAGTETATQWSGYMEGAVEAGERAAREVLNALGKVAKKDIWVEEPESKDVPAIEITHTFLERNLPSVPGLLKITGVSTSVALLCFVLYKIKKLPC

[2] = target: T2, Amine oxidase [flavin-containing] B (Rattus norvegicus, UniProt P19643); assay: Inhibition of Sprague-Dawley rat brain mitochondrial MAO-B using [14C]-PEA as substrate by radioassay method
T2 sequence (P19643 whole entry): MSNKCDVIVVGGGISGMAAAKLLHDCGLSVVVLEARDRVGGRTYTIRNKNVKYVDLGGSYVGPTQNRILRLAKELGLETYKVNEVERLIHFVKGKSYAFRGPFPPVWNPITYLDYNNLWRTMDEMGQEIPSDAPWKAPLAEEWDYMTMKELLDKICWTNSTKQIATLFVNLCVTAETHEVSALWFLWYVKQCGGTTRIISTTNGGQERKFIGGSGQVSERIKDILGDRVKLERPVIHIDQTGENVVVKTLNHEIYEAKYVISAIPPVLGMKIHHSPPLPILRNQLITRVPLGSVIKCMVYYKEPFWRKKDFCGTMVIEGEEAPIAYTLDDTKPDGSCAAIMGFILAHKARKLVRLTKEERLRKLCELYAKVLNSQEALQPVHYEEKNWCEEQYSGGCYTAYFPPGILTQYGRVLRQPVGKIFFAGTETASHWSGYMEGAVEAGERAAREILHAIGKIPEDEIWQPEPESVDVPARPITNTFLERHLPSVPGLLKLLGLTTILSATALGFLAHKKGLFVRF

[3] = species: Rattus norvegicus; assay: Selectivity ratio of IC50 for Sprague-Dawley rat brain mitochondrial MAO-A to IC50 for Sprague-Dawley rat brain mitochondrial MAO-B
[4] = target: T2, Amine oxidase [flavin-containing] B; assay: Competitive inhibition of Sprague-Dawley rat brain mitochondrial MAO-B using PEA as substrate by Lineweaver-Burk plot analysis
[5] = target: T2, Amine oxidase [flavin-containing] B; assay: Inhibition of Sprague-Dawley rat brain mitochondrial MAO-B using PEA as substrate preincubated for 60 mins; conditions: read-out: Kieq
[6] = target: T2, Amine oxidase [flavin-containing] B; assay: Inhibition of Sprague-Dawley rat brain mitochondrial MAO-B using [14C]-PEA as substrate preincubated for 60 mins by radiochemical method
[7] = target: T2, Amine oxidase [flavin-containing] B; assay: Inhibition of Sprague-Dawley rat brain mitochondrial MAO-B using [14C]-PEA as substrate preincubated for 120 mins by radiochemical method

Structure (SMILES) | IC50 [1] [µM] | IC50 [2] [µM] | Ratio IC50 [3] | Ki [4] [µM] | Ki [5] [µM] | IC50 [6] [µM] | IC50 [7] [µM]
N#CCCn1nc(-c2ccc(OCc3ccccc3)cc2)oc1=O | – | – | > 71400 | 0.22 | 0.0007 | – | –
N#CCCn1nc(-c2ccc(-c3ccccc3)cc2)oc1=S | 22.5 | 0.074 | 304 | – | – | – | –
O=c1oc(-c2ccc(OCc3ccccc3)cc2)nn1CCO | – | – | > 30400 | – | – | 0.0047 | 0.0047

Second part, the molecule after the results:

IC50 [1] [µM] | IC50 [2] [µM] | Ratio IC50 [3] | Ki [4] [µM] | Ki [5] [µM] | IC50 [6] [µM] | IC50 [7] [µM] | Structure (SMILES)
7.8 | 0.056 | 139 | – | – | – | – | N#CCCn1nc(-c2ccc(-c3ccccc3)cc2)oc1=O
– | – | > 3200 | – | – | – | – | N#CCCn1nc(-c2ccc(OCc3ccccc3)cc2)oc1=S
